Here are results for four molecules from patent US20060211624A1, “Methods and compositions for the treatment of parkinson's disease and other alpha-synucleinopathies” (Goverment of the US, as Represented by, priority 2003, published 2006).

Assay [1] has as its target T1, tTGase (Homo sapiens, UniProt P21980).
T1 construct: expressed in transfected cells; host or cells: COS-7 (A2); HEK293T (A3); pSG5 expression vector
T1 sequence (P21980 1-687): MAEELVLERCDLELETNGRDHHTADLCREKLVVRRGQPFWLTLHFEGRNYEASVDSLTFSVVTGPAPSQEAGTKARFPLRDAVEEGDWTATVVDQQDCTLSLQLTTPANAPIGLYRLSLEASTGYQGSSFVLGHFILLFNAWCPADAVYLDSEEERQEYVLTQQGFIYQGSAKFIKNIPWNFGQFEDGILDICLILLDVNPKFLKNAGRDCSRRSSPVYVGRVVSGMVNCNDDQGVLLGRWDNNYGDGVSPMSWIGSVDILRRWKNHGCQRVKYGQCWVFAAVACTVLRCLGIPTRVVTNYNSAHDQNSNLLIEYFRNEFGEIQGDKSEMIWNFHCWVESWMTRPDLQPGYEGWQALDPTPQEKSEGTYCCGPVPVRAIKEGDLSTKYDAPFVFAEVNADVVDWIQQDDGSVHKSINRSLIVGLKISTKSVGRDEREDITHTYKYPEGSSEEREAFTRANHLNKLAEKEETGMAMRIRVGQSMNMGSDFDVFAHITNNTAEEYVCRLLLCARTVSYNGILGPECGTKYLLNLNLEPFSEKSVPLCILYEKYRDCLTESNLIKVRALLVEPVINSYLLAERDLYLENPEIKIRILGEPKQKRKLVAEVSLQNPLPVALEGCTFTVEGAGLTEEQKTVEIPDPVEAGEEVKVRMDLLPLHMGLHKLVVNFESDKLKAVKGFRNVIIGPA
As to the kind of experiment: tTGase-induced α-synuclein aggregation in transfected COS-7 cells (detergent-insoluble fraction, Western blot). The format is cell-based. The protocol: Suitable tTGase inhibitor compounds for use in the treatment methods and compositions of the invention can be also be assessed by a protocol referred to herein as ‘a standard in vivo tTGase inhibition assay’, set forth as follows: Cells (e.g., neurons, COS-7 cells, or HEK […] cells) are co-transfected with an α-synuclein and tTGase expression plasmids (1 μg each) using FuGene 6 reagent (Roche Molecular Biochemicals, Indianapolis, Ind.) for 6 hours and cultured in DMEM containing 10% FBS for 48 hours. Cells are then lysed in a buffer containing PBS with 1% Triton X-100 and a mixture of protease inhibitors (Roche Molecular Biochemicals). Cells are homogenized with 20 strokes in a Dounce homogenizer, centrifuged at 20,000×g at 4° C. for 30 minutes. The detergent-insoluble fraction is used in Western blot analysis using an anti-α-synuclein antibody as described above for the standard in vitro assay. The cells in the assay can be cultured in the presence or absence of a candidate compound to determine whether the candidate compound can inhibit the production of the high-molecular weight aggregates. This defined standard in vivo tTGase inhibition assay is exemplified in Examples 1 and 2 (including the materials and methods section) which follows.
α-Synuclein cDNA was cloned by PCR from human fetal brain cDNA library (Stratagene, La Jolla, Calif.) (Bennett, M. C. et al. (1999) J. Biol. Chem. 274:33855-33858) and subcloned into pcDNA3.1 (Invitrogen, Carlsbad, Calif.), and pTYB11 (New England Biolabs, Beverly, Mass.). tTGase cDNA was amplified by PCR from human liver cDNA library by using primers 5′-aagaattc[…]-3′ (SEQ ID NO:1) and 5′-aagaattc[…]-3′ (SEQ ID NO:2). Lowercase letters indicate additional nucleotides designed to facilitate cloning. The PCR product was inserted into pSG5 expression vector (Stratagene), and its sequence matched perfectly with the known cDNA sequence of human tTGase (Gentile, V. et al. (1991) J. Biol. Chem. 266:478-483). […] Mouse monoclonal tTGase antibody (CUB 7402) was purchased from DAKO (Carpinteria, Calif.). The rabbit polyclonal tTGase antibody was described in Kim. S. Y. et al. (1999) J. Biol. Chem. 274:30715-30721. Guinea pig liver tTGase, cystamine (CTM), and A23187 were purchased from Sigma (St. Louis, Mo.). Rabbit polyclonal α-synuclein antibodies were obtained from Sigma and Chemicon (Temecula, Calif.). Monoclonal anti-α-synuclein antibodies, SYN-1 and LB509, were from Transduction Laboratories (Lexington, Ky.) and Zymed (South San Francisco, Calif.), respectively. Monoclonal antibody recognizing ε(γ-glutamyl) lysine isodipeptide bonds (81D1C2) was purchased from Covalab (Lyon, France). Recombinant human α-synuclein protein was expressed in pTYB11 and purified by the IMPACT T7 system (New England Biolabs) according to the supplier's instructions.
(§1) COS-7 and human embryonic kidney (HEK) 293T cell lines were maintained in DMEM containing 10% FBS. Transfections were performed by using FuGene 6 reagent (Roche Molecular Biochemicals, Indianapolis, Ind.) for a 6 hour incubation period, and then treatments were initiated.
Cells were lysed in a buffer containing PBS with 1% Triton X-100 and a mixture of protease inhibitors (Roche Molecular Biochemicals). […] Immunoprecipitates were analyzed by Western blots with antiisodipeptide antibody (81D1C2) or anti-α-synuclein antibody SYN-1 with the ECL detection system (NEN, Boston, Mass.). […]
(A western blot detects proteins with antibodies after separation by electrophoresis.)

Assay [2] concerns the target T1, tTGase. The assay is described as follows: tTGase-induced α-synuclein aggregates by immunocytochemistry in transfected HEK293T cells. The format is cell-based. The conditions noted are these: 48 hours. The protocol:
FIG. 1 depicts α-Synuclein the detection of aggregates by immunocytochemistry. HEK293T cells transiently transfected with α-synuclein in the absence or presence of tTGase were treated with CTM (100 μM, 200 μM) or A23187 (0.1 μg/ml) for 48 hours and stained for α-synuclein and tTGase. Aggregate-containing cells among transfected cells were counted in 10 randomly selected fields. Each microscopic field had 10-20 transfected cells. The data represent means±SEM. Significance levels determined by factorial ANOVA and the Bonferroni post hoc test are shown. *, P<0.002; * *, P<0.06; * * *, P<0.02.
as §1
HEK 293T cells transiently transfected as described in the Examples below were cultured in the presence or absence of indicated chemicals in collagen-coated Biocoat slides (Becton Dickinson, Bedford, Mass.) for 48 hours. […] Cells were washed five times with PBS and analyzed under a fluorescence microscope (Axiophot, Zeiss, Thornwood, N.Y.). For quantification of inclusions, 10 microscopic fields were randomly selected, and the percentage of inclusion-positive cells was counted among transfected cells. […]

The target in a further assay is T2, guinea pig liver tTGase (Cavia cutleri, UniProt P08587).
T2 construct: purified guinea pig liver tTGase (10 nM); purchased Sigma (St. Louis, Mo.); host or cells: guinea pig liver
T2 sequence (P08587 1-690): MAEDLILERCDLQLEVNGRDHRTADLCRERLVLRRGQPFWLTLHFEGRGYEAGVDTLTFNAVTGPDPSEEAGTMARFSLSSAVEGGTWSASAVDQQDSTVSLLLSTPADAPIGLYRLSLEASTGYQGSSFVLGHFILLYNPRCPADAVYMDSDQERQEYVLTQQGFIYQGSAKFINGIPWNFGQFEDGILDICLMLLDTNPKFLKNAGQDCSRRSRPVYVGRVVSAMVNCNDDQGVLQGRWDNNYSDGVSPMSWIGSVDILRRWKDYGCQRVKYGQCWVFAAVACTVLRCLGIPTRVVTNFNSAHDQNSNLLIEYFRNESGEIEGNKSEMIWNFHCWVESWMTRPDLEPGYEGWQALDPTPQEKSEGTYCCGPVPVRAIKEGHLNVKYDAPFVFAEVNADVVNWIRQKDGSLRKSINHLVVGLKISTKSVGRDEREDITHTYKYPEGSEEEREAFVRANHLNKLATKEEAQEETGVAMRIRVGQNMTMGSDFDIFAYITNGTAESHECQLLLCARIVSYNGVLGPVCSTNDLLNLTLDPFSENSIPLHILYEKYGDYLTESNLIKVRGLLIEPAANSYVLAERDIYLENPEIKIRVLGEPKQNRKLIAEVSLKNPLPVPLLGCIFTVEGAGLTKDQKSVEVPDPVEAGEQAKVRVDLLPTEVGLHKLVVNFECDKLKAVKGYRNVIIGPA
The assay is described as follows: In vitro cross-linking reaction of α-synuclein by tTGase (SDS/PAGE, Western blot). Type of assay: biochemical. The conditions noted are these: 37° C., 2 hours. The method, then: Suitable tTGase inhibitor compounds for use in the treatment methods and compositions of the invention can be assessed by straightforward protocols, such as the following. […] The reaction products are then analyzed by standard SDS/PAGE and Western blot using an anti-α-synuclein antibody (e.g., rabbit polyclonal antibodies, available from Sigma or Chemicon (Temecula, Calif.); or monoclonal antibodies such as SYN-1 or LB509, available from Signal Transduction Laboratories (Lexington, Ky.) and Zymed (South San Francisco, Calif.), respectively). […]
The reaction was performed at 37° C. for 2 hours in a buffer containing 50 mM Tris-HCl (pH 7.5), 2 mM leupeptin, and 1 mM purified α-synuclein. […] The reaction was stopped by the addition of 20 mM EDTA, and products were analyzed by SDS/PAGE followed by Western blot.
To study the in vitro cross-linking of α-synuclein, purified recombinant human α-synuclein protein was incubated with guinea pig liver tTGase for 2 hours at 37° C., and the reaction products were analyzed by SDS/PAGE, followed by Western blotting with anti-α-synuclein antibody. […]

Where [3] appears, read: delayed treatment, 200 μM during the final 48 hours of 96 hours, COS-7.

Take `CNc1ccc2oc(C[C@H]3O[C@@]4(CC[C@H]3C)O[C@H]([C@H](C)C(=O)c3ccc[nH]3)[C@H](C)C[C@H]4C)nc2c1C(=O)O` [A23187]: the “high molecular weight bands of α-synuclein” value on tTGase [1] (COS-7 cells transfected with only α-synuclein, 0.1 μg/ml) is recorded as “some high molecular weight bands”. Besides, on tTGase [1] (α-synuclein- and tTGase-transfected COS-7 cells, 0.1 μg/ml), the “formation of α-synuclein aggregates” value is on record as “significant increase”. Further, at tTGase [2] (HEK293T cells, 0.1 μg/ml), the “aggregate formation (aggregate-containing cells among transfected cells)” value is reported as “significantly increased”.
As to `NCCSSCCN` [CTM, cystamine], on tTGase [1] (setting [3]), the “further de novo aggregation occurring during the final 48 hours” value is reported as “inhibited further de novo aggregation” and the “level of aggregates formed during the initial 48 hours (preformed aggregates)” value was “did not diminish”. The “formation of tTGase-induced α-synuclein aggregates” value at tTGase [1] (α-synuclein- and tTGase-transfected COS-7 cells, 200 μM for 48 hours) is recorded as “dramatically inhibited”. The “inclusion formation (aggregate-containing cells among transfected cells)” value at tTGase [2] (HEK293T cells coexpressing α-synuclein and tTGase, 100 μM, 200 μM) is on record as “decreased inclusion formation”.
In the case of `[Ca+2].[Cl-].[Cl-]` [CaCl2], the “generation of high molecular weight aggregates of α-synuclein” value at guinea pig liver tTGase (addition of CaCl2 (5 mM), tTGase 10 nM, DTT 0.1 mM) was “significantly enhanced”.
On to `O=C(O)CN(CCN(CC(=O)O)CC(=O)O)CC(=O)O` [EDTA], for which the “aggregate formation (α-synuclein)” value at guinea pig liver tTGase (chelation with EDTA (0.1 mM, 5 mM)) was “dose-dependently blocked”.
